# Assay results taken from PMC11650638, “In Vivo Activity Profiling of Biosynthetic Darobactin D22 against Critical Gram-Negative Pathogens” (ACS Infectious Diseases, 2024).
# Where two headings read alike, the source gives them in different places.
# Tests used:
# [1] = tested on: Pseudomonas aeruginosa PAO1; assay: Murine neutropenic thigh infection model; type: in vivo, CD-1 mice; settings: 8 h, 20 mg/kg
# Protocol: Zg, Committee on Animal Research Ethics-Zagreb) in collaboration with the Croatian Competent Authority and the National Ethics Committee, granting this project a 5-year authorisation, in compliance […]
# Animals: The study was performed in male, 6–7 weeks old C57BL/6 mice. Animals were housed in a temperature-controlled room (22±2°C), relative humidity 55±10%, 15–20 air changes per hour, atrificial […]
# Sampling: Serial or terminal blood samples were collected into EDTA-coated tubes at the following […]
# into Precellys® tubes for all animals. Additional, terminal tissue samples were taken at 1 h for the IV and IP groups. For the SC and IT groups, terminal tissue samples were further taken at 2, 4, 8 h. Urine […]
# samples (3 animals) were collected into emtpy tubes and kept chilled, followed by centrifugation at 3000 rpm, 10 min, 4°C. Total urine volume was recorded. […]
# (§1) reduce stress and harm arising from experimental procedures, including use of analgesia, access to wet food and additional bedding. The room temperature, relative humidity and maximum background noise were maintained according to Home Office Code of Practice. Mice were exposed to 12-hour light/dark […]
# (§2) Mice were immunosuppressed using cyclophosphamide administered subcutaneously (SC) at 150 mg/kg on day minus 4 and at 100 mg/kg on day minus 1 relative to the day of infection. Following […]
# Acinetobacter baumannii = assay: MIC50/MIC90 determination and MIC against isolates of A. baumannii; type: cell-based
# Klebsiella pneumoniae = assay: MIC50/MIC90 determination and MIC against isolates of K. pneumoniae; type: cell-based
# Escherichia coli = assay: MIC50/MIC90 determination and MIC against isolates of E. coli; type: cell-based
# Pseudomonas aeruginosa = assay: MIC50/MIC90 determination and MIC against isolates of P. aeruginosa; type: cell-based
# Escherichia coli 106-09 = assay: Murine peritonitis/sepsis model; type: in vivo, CD-1 female mice; settings: 40 mg/kg SC q6h
# Protocol: Mice were infected IP (Figure S7). […]
# as §1, §2
# CFU/thigh P. aeruginosa PAO1 by intramuscular (IM) injection of 50 µL bacterial suspension into both thighs. Following infection, a single dose of carprofen was administered SC to provide pain relief.
# One hour post-inoculation, one group of mice were euthanized to quantify the pre-treatment bacterial burden. […]
# At eight or 25 hours post infection, mice were euthanized by overdose of pentobarbitone and death confirmed by cervical dislocation. […] The bacterial burden was quantified following overnight incubation of agar plates at 37°C. For analytical purposes, burdens from individual thighs were counted as independent […]
# intravenously. Mice were observed during the study and scored 0 – 4 based on their behavior and clinical signs of discomfort and euthanized at the humane endpoint as a surrogate marker for death. […]
molecule,measurement,setting,value
"O=C(O)c1cn(C2CC2)c2cc(N3CCNCC3)c(F)cc2c1=O [Ciprofloxacin, ciprofloxacin]",Δlog CFU/g in thigh muscle,[1],–4.06 log CFU/g
same,MIC,"Acinetobacter baumannii; Acinetobacter baumannii, ATCC17978, isolate ATCC17978, read-out: MIC",0.5 µg/mL
same,MIC,"Acinetobacter baumannii; Acinetobacter baumannii, ATCC19187, isolate ATCC19187, read-out: MIC",0.5 µg/mL
same,MIC,"Acinetobacter baumannii; Acinetobacter baumannii, ATCC51432, isolate ATCC51432, read-out: MIC",16 µg/mL
same,MIC,"Acinetobacter baumannii; Acinetobacter baumannii, ATCCBAA747, isolate ATCC BAA-747, read-out: MIC",0.5 µg/mL
same,MIC,"Acinetobacter baumannii; Acinetobacter baumannii, ATCCBAA1605, isolate ATCC BAA-1605, read-out: MIC",> 32 µg/mL
same,MIC,"Acinetobacter baumannii; Acinetobacter baumannii, ATCCBAA1710, isolate ATCC BAA-1710, read-out: MIC",32 µg/mL
same,MIC,"Acinetobacter baumannii; Acinetobacter baumannii, ATCCBAA1791, isolate ATCC BAA-1791, read-out: MIC",> 32 µg/mL
same,MIC,"Acinetobacter baumannii; Acinetobacter baumannii, ATCCBAA1795, isolate ATCC BAA-1795, read-out: MIC",> 32 µg/mL
same,MIC,"Acinetobacter baumannii; Acinetobacter baumannii, ATCCBAA1878, isolate ATCC BAA-1878, read-out: MIC",4 to 8 µg/mL
same,MIC,"Acinetobacter baumannii; Acinetobacter baumannii, CIP105742, isolate CIP 105742, read-out: MIC",0.125 to 0.25 µg/mL
same,MIC,"Acinetobacter baumannii; Acinetobacter baumannii, CIP107292, isolate CIP 107292, read-out: MIC",> 32 µg/mL
same,MIC,"Acinetobacter baumannii; Acinetobacter baumannii, NCTC13301, isolate NCTC13301, read-out: MIC",> 32 µg/mL
same,MIC,"Acinetobacter baumannii; Acinetobacter baumannii, isolate BM4454, read-out: MIC",32 µg/mL
same,MIC,"Acinetobacter baumannii; Acinetobacter baumannii, isolate G478 (AYE), read-out: MIC",> 32 µg/mL
same,MIC,"Acinetobacter baumannii; Acinetobacter baumannii, isolate R831, read-out: MIC",8 µg/mL
same,MIC,"Acinetobacter baumannii; Acinetobacter baumannii, isolate R835, read-out: MIC",32 µg/mL
same,MIC,"Klebsiella pneumoniae; Klebsiella pneumoniae, NCTC13439, isolate NCTC13439",16 µg/mL
same,MIC,"Klebsiella pneumoniae; Klebsiella pneumoniae, NCTC13442, isolate NCTC13442",4 µg/mL
same,MIC,Escherichia coli; Escherichia coli,0.063 to 0.125 µg/mL
same,MIC,"Pseudomonas aeruginosa; Pseudomonas aeruginosa, ATCCBAA2114, isolate ATCC BAA-2114, read-out: MIC",4 µg/mL
same,MIC,"Pseudomonas aeruginosa; Pseudomonas aeruginosa, CIP105381, isolate CIP 105381, read-out: MIC",0.5 µg/mL
same,MIC,"Pseudomonas aeruginosa; Pseudomonas aeruginosa, PAO1, isolate PAO1, read-out: MIC",1 µg/mL
same,MIC,"Pseudomonas aeruginosa; Pseudomonas aeruginosa, isolate BOR 05, read-out: MIC",16 µg/mL
same,MIC,"Pseudomonas aeruginosa; Pseudomonas aeruginosa, isolate CAE 02, read-out: MIC",4 µg/mL
same,MIC,"Pseudomonas aeruginosa; Pseudomonas aeruginosa, isolate CHA, read-out: MIC",0.5 µg/mL
same,MIC,"Pseudomonas aeruginosa; Pseudomonas aeruginosa, isolate R2255, read-out: MIC",0.5 µg/mL
same,MIC,"Pseudomonas aeruginosa; Pseudomonas aeruginosa, isolate ROU 01, read-out: MIC",16 µg/mL
same,MIC,"Pseudomonas aeruginosa; Pseudomonas aeruginosa, isolate SDE 05, read-out: MIC",0.5 µg/mL
"C[C@@H](O)[C@H]1C(=O)N2C(C(=O)O)=C(S[C@@H]3CN[C@H](C(=O)N(C)C)C3)[C@H](C)[C@H]12 [MER, Meropenem]",Δlog CFU/mL Blood compared to SOT,Escherichia coli 106-09,–2.98 log CFU/mL
same,Δlog CFU/mL PF compared to SOT,Escherichia coli 106-09,–4.33 log CFU/mL
colistin,MIC,Acinetobacter baumannii; isolate ATCC17978,4 µg/mL
same,MIC,Acinetobacter baumannii; isolate ATCC19003,2 to 4 µg/mL
same,MIC,Acinetobacter baumannii; isolate ATCC19187,4 µg/mL
same,MIC,Acinetobacter baumannii; isolate ATCC19606,4 µg/mL
same,MIC,Acinetobacter baumannii; isolate ATCC27224,2 µg/mL
same,MIC,Acinetobacter baumannii; isolate ATCC51432,8 µg/mL
same,MIC,Acinetobacter baumannii; isolate ATCC BAA-747,4 µg/mL
same,MIC,Acinetobacter baumannii; isolate ATCC BAA-1605,2 µg/mL
same,MIC,Acinetobacter baumannii; isolate ATCC BAA-1710,4 to 8 µg/mL
same,MIC,Acinetobacter baumannii; isolate ATCC BAA-1791,2 µg/mL
same,MIC,Acinetobacter baumannii; isolate ATCC BAA-1795,8 µg/mL
same,MIC,Acinetobacter baumannii; isolate ATCC BAA-1878,4 µg/mL
same,MIC,Acinetobacter baumannii; isolate BM4454,4 to 8 µg/mL
same,MIC,Acinetobacter baumannii; isolate BM4652 (efflux mutant),4 µg/mL
same,MIC,Acinetobacter baumannii; isolate CIP 105742,2 µg/mL
same,MIC,Acinetobacter baumannii; isolate CIP 107292,4 to 8 µg/mL
same,MIC,Acinetobacter baumannii; isolate DSM 30008,4 µg/mL
same,MIC,Acinetobacter baumannii; isolate G478 (AYE),2 to 8 µg/mL
same,MIC,Acinetobacter baumannii; isolate NCTC13301,8 µg/mL
same,MIC,Acinetobacter baumannii; isolate R831,4 to 8 µg/mL
same,MIC,Acinetobacter baumannii; isolate R835,4 to 8 µg/mL
same,MIC,Klebsiella pneumoniae; isolate ATCC13883,1 µg/mL
same,MIC,Klebsiella pneumoniae; isolate ATCC13883 ColR_,64 µg/mL
same,MIC,Klebsiella pneumoniae; isolate ATCC43816,1 µg/mL
same,MIC,Klebsiella pneumoniae; isolate ATCC BAA-1705,2 µg/mL
same,MIC,Klebsiella pneumoniae; isolate ATCC BAA-1903,1 µg/mL
same,MIC,Klebsiella pneumoniae; isolate ATCC BAA-2342,4 µg/mL
same,MIC,Klebsiella pneumoniae; isolate ATCC BAA-2470,1 µg/mL
same,MIC,Klebsiella pneumoniae; isolate ATCC BAA-2472,2 µg/mL
same,MIC,Klebsiella pneumoniae; isolate ATCC BAA-2473,1 µg/mL
same,MIC,Klebsiella pneumoniae; isolate CIP 104119,1 µg/mL
same,MIC,Klebsiella pneumoniae; isolate CIP 104298,16 µg/mL
same,MIC,Klebsiella pneumoniae; isolate CIP 105705,2 µg/mL
same,MIC,Klebsiella pneumoniae; isolate CIP 106982,2 µg/mL
same,MIC,Klebsiella pneumoniae; isolate Clinical Lyo-01,1 µg/mL
same,MIC,Klebsiella pneumoniae; isolate Clinical Lyo-02,1 µg/mL
same,MIC,Klebsiella pneumoniae; isolate Clinical Lyo-03,2 µg/mL
same,MIC,Klebsiella pneumoniae; isolate Clinical Lyo-04,1 µg/mL
same,MIC,Klebsiella pneumoniae; isolate Clinical Lyo-05,1 µg/mL
same,MIC,Klebsiella pneumoniae; isolate G52,1 µg/mL
same,MIC,Klebsiella pneumoniae; isolate G197,1 µg/mL
same,MIC,Klebsiella pneumoniae; isolate G201,1 µg/mL
same,MIC,Klebsiella pneumoniae; isolate G306,1 µg/mL
same,MIC,Klebsiella pneumoniae; isolate NCTC13438,1 µg/mL
same,MIC,Klebsiella pneumoniae; isolate NCTC13439,2 µg/mL
same,MIC,Klebsiella pneumoniae; isolate NCTC13442,1 µg/mL
same,MIC,Klebsiella pneumoniae; isolate NCTC13443,1 µg/mL
same,MIC,Klebsiella pneumoniae; isolate R750,1 µg/mL
same,MIC,Klebsiella pneumoniae; isolate R1242,1 µg/mL
same,MIC,Klebsiella pneumoniae; isolate R1525,1 µg/mL
same,MIC,Klebsiella pneumoniae; isolate R2673,1 µg/mL
same,MIC,Escherichia coli; isolate ATCC25922,2 to 4 µg/mL
same,MIC,Escherichia coli; isolate ATCC BAA-2340,2 µg/mL
same,MIC,Escherichia coli; isolate ATCC BAA-2469,2 µg/mL
same,MIC,Escherichia coli; isolate ATCC BAA-2471,1 to 2 µg/mL
same,MIC,Escherichia coli; isolate CIP 104103,1 to 2 µg/mL
same,MIC,Escherichia coli; isolate CIP 105706,1 to 2 µg/mL
same,MIC,Escherichia coli; isolate CIP 107049,2 to 4 µg/mL
same,MIC,Escherichia coli; isolate G38,2 µg/mL
same,MIC,Escherichia coli; isolate G41 (first listing),2 µg/mL
same,MIC,Escherichia coli; isolate G41 (second listing),1 µg/mL
same,MIC,Escherichia coli; isolate G260,2 µg/mL
same,MIC,Escherichia coli; isolate G264,2 µg/mL
same,MIC,Escherichia coli; isolate G409,2 µg/mL
same,MIC,Escherichia coli; isolate G486,2 µg/mL
same,MIC,Escherichia coli; isolate G487,1 µg/mL
same,MIC,Escherichia coli; isolate NCTC10418,2 to 4 µg/mL
same,MIC,Escherichia coli; isolate NCTC13352,2 to 4 µg/mL
same,MIC,Escherichia coli; isolate NCTC13400,1 µg/mL
same,MIC,Escherichia coli; isolate NCTC13441,2 µg/mL
same,MIC,Escherichia coli; isolate NCTC13846,8 µg/mL
same,MIC,Escherichia coli; isolate PRAA1,1 µg/mL
same,MIC,Escherichia coli; isolate PRAA3,2 to 4 µg/mL
same,MIC,Escherichia coli; isolate PRAA17,2 µg/mL
same,MIC,Escherichia coli; isolate PRAA18,2 µg/mL
same,MIC,Escherichia coli; isolate PRAA21,2 to 4 µg/mL
same,MIC,Escherichia coli; isolate R721,2 µg/mL
same,MIC,Escherichia coli; isolate R995,2 µg/mL
same,MIC,Escherichia coli; isolate R996,1 µg/mL
same,MIC,Escherichia coli; isolate R1535,2 µg/mL
same,MIC,Escherichia coli; isolate R2670,1 to 2 µg/mL
same,MIC,Pseudomonas aeruginosa; isolate ATCC BAA-2114,2 µg/mL
same,MIC,Pseudomonas aeruginosa; isolate BOR 04,4 µg/mL
same,MIC,Pseudomonas aeruginosa; isolate BOR 05,4 µg/mL
same,MIC,Pseudomonas aeruginosa; isolate CAE 02,2 µg/mL
same,MIC,Pseudomonas aeruginosa; isolate CHA,2 µg/mL
same,MIC,Pseudomonas aeruginosa; isolate CHRU LILLE VAP11,4 µg/mL
same,MIC,Pseudomonas aeruginosa; isolate CHRU LILLE VAP65a,4 µg/mL
same,MIC,Pseudomonas aeruginosa; isolate CIP 105250,2 µg/mL
same,MIC,Pseudomonas aeruginosa; isolate CIP 105381,2 µg/mL
same,MIC,Pseudomonas aeruginosa; isolate CIP 107051,2 µg/mL
same,MIC,Pseudomonas aeruginosa; isolate CLI 02,2 to 4 µg/mL
same,MIC,Pseudomonas aeruginosa; isolate CLI 03,2 µg/mL
same,MIC,Pseudomonas aeruginosa; isolate COL 03,2 µg/mL
same,MIC,Pseudomonas aeruginosa; isolate DIJ 02,2 µg/mL
same,MIC,Pseudomonas aeruginosa; isolate NANC 01,2 µg/mL
same,MIC,Pseudomonas aeruginosa; isolate NANC 06,4 µg/mL
same,MIC,Pseudomonas aeruginosa; isolate NCTC13437,2 µg/mL
same,MIC,Pseudomonas aeruginosa; isolate PA 43,2 µg/mL
same,MIC,Pseudomonas aeruginosa; isolate PAO1,4 µg/mL
same,MIC,Pseudomonas aeruginosa; isolate PBI 01,4 µg/mL
same,MIC,Pseudomonas aeruginosa; isolate PBI 03G,2 µg/mL
same,MIC,Pseudomonas aeruginosa; isolate PBI 07,2 µg/mL
same,MIC,Pseudomonas aeruginosa; isolate PGP 02,4 µg/mL
same,MIC,Pseudomonas aeruginosa; isolate R1541,4 µg/mL
same,MIC,Pseudomonas aeruginosa; isolate R2254,4 µg/mL
same,MIC,Pseudomonas aeruginosa; isolate R2255,2 µg/mL
same,MIC,Pseudomonas aeruginosa; isolate R2256,2 µg/mL
same,MIC,Pseudomonas aeruginosa; isolate ROU 01,4 µg/mL
same,MIC,Pseudomonas aeruginosa; isolate SDE 05,2 µg/mL
same,MIC,Pseudomonas aeruginosa; isolate STR 02,2 µg/mL
same,MIC,Pseudomonas aeruginosa; isolate TOUL 01,2 to 4 µg/mL
